Tests used:
Assay type in all cases: cell-based, human
[1] = system: H460 cells; assay: Cell-Titer Glo cell viability / growth inhibition; conditions: H460 NSCLC cell line
Procedure: (§1) The NSCLC lines with IGF-1R, H292, H358, H322, H441, A549, Calu6, H460, H1703 and SW1573 were cultured in the appropriate ATCC recommended supplemented media. Cell extracts were prepared by detergent lysis ((50 mM Tris-HCl, pH8, 150 mM NaCl, 1% NP-40, 0.5% NaDeoxycholate, 0.1% SDS) containing protease and phosphatase inhibitors. The soluble protein concentration was determined by micro-BSA assay (Pierce, Rockford Ill.).
(§2) IGF-1R inhibitor Compound 66 (i.e. 3-(3-Azetidin-1-ylmethyl-cyclobutyl)-1-(2-phenyl-quinolin-7-yl)-imidazo[1,5-a]pyrazin-8-ylamine; see structure below) stock concentration was 10 mM in 100% DMSO (dimethyl sulfoxide). Serial dilutions (1:3 or 1:4) were used to establish the 50% inhibitory dose of IGF-1R inhibitor. Before dosing, inhibitor was diluted in 100% DMSO, and then added to the cells at desired final concentrations in duplicates. The final DMSO concentration was between 0.3-0.5%. Compound 66 was synthesized by the methods described in published International patent application number WO 2005/097800 A1.
(§3) For measuring cell viability, Cell-Titer Glo assay was used, which is available as a kit from Promega. The basis of the assay is a luminescent quantitation of ATP present in a cell culture plate well. In essence, the greater the number of viable cells in the well, the greater the level of ATP present. The assay utilizes a substrate that binds ATP to produce a luminescent signal, which can be read on a luminometer. Unless otherwise noted, the manufacturer's instructions were followed exactly. Briefly, on Day 1, cells were plated in 120 μl of 10% serum-containing growth media at a density of 4000 cells/well in a white polystyrene 96 well assay plate. On day 2, cells were treated with 15 μl of 10× concentration of the IGF-1R inhibitor (e.g. Compound 66, PQIP) or DMSO alone for a final well volume of […]. After 72 h incubation with the inhibitor, the cells were assayed. Results were calculated as a fraction of the DMSO controlled cells.

[2] = system: H358 cells; assay: Cell-Titer Glo cell viability / growth inhibition; conditions: H358 NSCLC cell line
Procedure: as §1, §2, §3

[3] = system: SW1573 cells; assay: Cell-Titer Glo cell viability / growth inhibition; conditions: SW1573 NSCLC cell line
Procedure: as §1, §2, §3

[4] = system: H441 cells; assay: Cell-Titer Glo cell viability / growth inhibition; conditions: H441 NSCLC cell line
Procedure: as §1, §2, §3

[5] = system: H292 cells; assay: Cell-Titer Glo cell viability / growth inhibition; conditions: H292 NSCLC cell line
Procedure: as §1, §2, §3

[6] = system: A549 cells; assay: Cell-Titer Glo cell viability / growth inhibition; conditions: A549 NSCLC cell line
Procedure: as §1, §2, §3

[7] = system: panel comprised of 28 tumor cell lines (colorectal, breast, pancreatic, NSCLC, head and neck); assay: Cell-Titer Glo growth inhibition, tumor cell line panel
Procedure: The effect of 3 μM PQIP on cell growth for a panel of 26 tumor cell lines is shown. The EMT status for the cell lines is indicated, and those tumor cell lines which harbor a known activating mutation in PI3K are marked by a *. EMT status is defined here according to the transcriptional activity of CDH1, the gene encoding E-Cadherin, indicated by either the methylation status of the CDH1 promoter or the presence of CDH1 gene transcriptional repressor proteins (e.g. Snail, Zeb1). Methylation or high levels of transcriptional repressors is associated with silencing of CDH1, and is thus an indicator of a mesenchymal cell. Cell growth was measured using Cell Titer Glo (Promega), and measurements were taken 72 hours after dosing. Data are expressed as % of maximal tumor growth inhibition and are representative of three or more independent experiments. […]
For measuring cell viability, Cell-Titer Glo assay was used, which is available as a kit from Promega. The basis of the assay is a luminescent quantitation of ATP present in a cell culture plate well. […] The assay utilizes a substrate that binds ATP to produce a luminescent signal, which can be read on a luminometer. […] Results were calculated as a fraction of the DMSO controlled cells.

Nc1nccn2c1c(-c1ccc3ccc(-c4ccccc4)nc3c1)nc2[C@H]1C[C@@H](CN2CCC2)C1 [Compound 66, 3-(3-Azetidin-1-ylmethyl-cyclobutyl)-1-(2-phenyl-quinolin-7-yl)-imidazo[1,5-a]pyrazin-8-ylamine]
sensitivity to Compound 66-mediated growth inhibition [1]: relatively insensitive
sensitivity to Compound 66-mediated growth inhibition [2]: sensitive
sensitivity to Compound 66-mediated growth inhibition [3]: relatively insensitive
sensitivity to Compound 66-mediated growth inhibition [4]: sensitive
sensitivity to Compound 66-mediated growth inhibition [5]: sensitive
sensitivity to Compound 66-mediated growth inhibition [6]: intermediate sensitivity

CN1CCN([C@H]2C[C@@H](c3nc(-c4ccc5ccc(-c6ccccc6)nc5c4)c4c(N)nccn43)C2)CC1 [PQIP, cis-3-[3-(4-Methyl-piperazin-1-yl)-cyclobutyl]1-(2-phenyl-quinolin-7-yl)-imidazo[1,5-a]pyrazin-8-ylamine]
inhibition at 3 µM ([7]; Homo sapiens, 3 μM PQIP, any mesenchymal tumor cell line in the panel): ≤ 50%
dose dependence of growth inhibition ([7]; varying concentrations of PQIP, all cell lines (data not shown)): dose-dependent

Reference: US8048621B2, “Biological markers predictive of anti-cancer response to insulin-like growth factor-1 receptor kinase inhibitors” (OSI Pharmaceuticals, LLC, priority 2007, dated 2011)
